Measured values reported in PMC5403886, “A Novel Spiro-Heterocyclic Compound Identified by the Silkworm Infection Model Inhibits Transcription in Staphylococcus aureus” (Frontiers in Microbiology, 2017).

Target: T1, SigA (primary sigma factor of RNA polymerase) (Staphylococcus aureus, UniProt P0A0J0)
T1 construct: His-tagged recombinant SigA (sigA from S. aureus RN4220, pET28a)
Test: pull-down with His-tagged SigA on cobalt magnetic beads, HPLC of eluted compound
Format: binding

T1 sequence (P0A0J0 whole entry): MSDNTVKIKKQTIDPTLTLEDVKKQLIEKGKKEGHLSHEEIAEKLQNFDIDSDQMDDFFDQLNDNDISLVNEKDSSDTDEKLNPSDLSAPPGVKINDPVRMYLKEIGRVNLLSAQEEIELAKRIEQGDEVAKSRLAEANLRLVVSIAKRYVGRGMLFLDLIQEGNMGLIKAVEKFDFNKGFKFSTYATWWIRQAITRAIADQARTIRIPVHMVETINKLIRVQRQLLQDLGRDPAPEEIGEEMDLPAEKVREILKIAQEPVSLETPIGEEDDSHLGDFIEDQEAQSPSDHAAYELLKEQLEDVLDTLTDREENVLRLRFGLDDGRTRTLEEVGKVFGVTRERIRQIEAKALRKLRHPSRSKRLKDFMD

With `CCCNC(=O)N1CCC2(CC1)Nc1cc(F)ccc1-n1cccc12` [GPI0363, 7-fluoro-N-propylspiro[5H-pyrrolo[1,2-a]quinoxaline-4,4′-piperidine]-1′-carboxamide] the “pull-down with His-tagged SigA on cobalt magnetic beads, HPLC of eluted compound” value was “The peak of GPI0363 appeared when mixed with SigA whereas the peak was not observed when SigA was omitted”.
